Laboratory results as given in article PMC9518255 (Journal of Enzyme Inhibition and Medicinal Chemistry, 2022).

Legend:
[1] = target: Keap1-Nrf2 PPI (Keap1 Kelch domain protein / FITC-9mer Nrf2 peptide amide) (Homo sapiens, UniProt Q14145); assay: Fluorescence polarisation; assay type: binding; details: for inhibition at 50 µM: read-out: inhibitory rate against Keap1-Nrf2 PPI; for inhibitory activities against Keap1-Nrf2 PPI compared to compound K3: FP assay, 5 and 50 μM, R2 substituent varied
[2] = Metabolic stability in human liver microsomes; assay type: in vitro ADME; details: pH 7.4

Sequence of Keap1-Nrf2 PPI (Keap1 Kelch domain protein / FITC-9mer Nrf2 peptide amide) (Q14145 321-609 limits assumed): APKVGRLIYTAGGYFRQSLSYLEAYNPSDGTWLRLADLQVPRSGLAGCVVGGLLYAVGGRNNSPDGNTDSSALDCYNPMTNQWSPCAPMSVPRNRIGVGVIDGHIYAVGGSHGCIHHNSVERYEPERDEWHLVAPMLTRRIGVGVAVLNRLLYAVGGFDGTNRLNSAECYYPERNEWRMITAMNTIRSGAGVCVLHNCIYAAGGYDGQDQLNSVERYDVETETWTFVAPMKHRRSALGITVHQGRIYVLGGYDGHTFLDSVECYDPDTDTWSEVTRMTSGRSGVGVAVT

| Structure (SMILES) | IC50 [1] | inhibition at 50 µM [1] | inhibitory activities against Keap1-Nrf2 PPI compared to compound K3 [1] | remaining at 0.5 h, 10 μM [2] |
| --- | --- | --- | --- | --- |
| COc1ccc(S(=O)(=O)Nc2ccc(NS(=O)(=O)c3ccc(OC)cc3)cc2)cc1 [K3] | 36.3 µM | ~68% | – | – |
| COc1ccc(S(=O)(=O)Nc2ccc(NS(=O)(=O)c3ccc(-c4ccccc4)cc3)cc2)cc1 [K14] | – | – | markedly decreased | – |
| COc1ccc(S(=O)(=O)Nc2ccc(NS(=O)(=O)Cc3ccccc3)cc2)cc1 [K15] | – | – | markedly decreased | – |
| COc1ccc(S(=O)(=O)Nc2ccc(NS(=O)(=O)c3ccc4ccccc4c3)cc2)cc1 [K16] | – | – | markedly decreased | – |
| COc1ccc(S(=O)(=O)Nc2ccc(NS(=O)(=O)c3cccc4cccnc34)cc2)cc1 [K17] | – | – | markedly decreased | – |
| O=C(CCc1ccc(O)cc1)c1c(O)cc(O)cc1O [PHL, Phloretin, reference compound] | 8.67 µM | – | – | 10.3% |

Continued, values first:

| IC50 [1] | inhibition at 50 µM [1] | inhibitory activities against Keap1-Nrf2 PPI compared to compound K3 [1] | remaining at 0.5 h, 10 μM [2] | Structure (SMILES) |
| --- | --- | --- | --- | --- |
| – | – | markedly decreased | – | COc1ccc(S(=O)(=O)Nc2ccc(NS(=O)(=O)c3ccccc3)cc2)cc1 [K10] |
| – | – | markedly decreased | – | COc1ccc(S(=O)(=O)Nc2ccc(NS(=O)(=O)c3ccc(C)cc3)cc2)cc1 [K11] |
| ~31.5 µM | 72% | slightly higher | – | COc1ccc(S(=O)(=O)Nc2ccc(NS(=O)(=O)c3cccnc3)cc2)cc1 [K18] |
| 0.74 µM | – | – | – | COc1ccc(S(=O)(=O)Nc2ccc(NS(=O)(=O)c3ccc(OC)cc3)c(CCC(=O)O)c2)cc1 [KP-1] |
